Test results reported in ChEMBL document CHEMBL1201862, “PubChem BioAssay data set” (2004).
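Exposure lasted 48 hours, with cells grown in 96-well plates and compounds tested at five concentrations. The concentration for 50% growth inhibition is given as GI50.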 Calls of active or inactive are those of the source. Cut-off read from the data, not from the text of the source: active = GI50 up to about 1.1 µM and inactive = higher.

Experiments:
Assay in all cases: NCI anticancer screen, dose series, 48 h
[1] = test system: HL-60
[2] = test system: BT-549
[3] = test system: 786-0
[4] = test system: ACHN
[5] = test system: COLO 205
[6] = test system: SF-268
[7] = test system: M14
[8] = test system: NCI-H522
[9] = test system: IGROV-1
[10] = test system: A498
[11] = test system: T47D
[12] = test system: LOX IMVI
[13] = test system: MOLT-4
[14] = test system: SW-620
[15] = test system: UO-31
[16] = test system: NCI-H226
[17] = test system: HOP-92
[18] = test system: SNB-75
[19] = test system: Malme-3M
[20] = test system: MDA-N

Row | SMILES | GI50 [1] | GI50 [2] | GI50 [3] | GI50 [4] | GI50 [5] | GI50 [6] | GI50 [7] | GI50 [8] | GI50 [9] | GI50 [10] | GI50 [11] | GI50 [12] | GI50 [13] | GI50 [14] | GI50 [15] | GI50 [16] | GI50 [17] | GI50 [18] | GI50 [19] | GI50 [20]
1 | CC(C)(C)OC(=O)N(CCCCN(CCCNC(=O)C(F)(F)F)C(=O)OC(C)(C)C)CCCNC(=O)C(F)(F)F | 60.3 µM (inactive) | > 100 µM (inactive) | > 100 µM (inactive) | > 100 µM (inactive) | > 100 µM (inactive) | > 100 µM (inactive) | > 100 µM (inactive) | 24 µM (inactive) | > 100 µM (inactive) | > 100 µM (inactive) | > 100 µM (inactive) | > 100 µM (inactive) | 71.9 µM (inactive) | > 100 µM (inactive) | > 100 µM (inactive) | > 100 µM (inactive) | > 100 µM (inactive) | > 100 µM (inactive) |  | 
2 | Cc1ccc(-c2cc(-c3ccco3)c(C#N)c(O)n2)cc1 | > 100 µM (inactive) |  | > 100 µM (inactive) | > 100 µM (inactive) | > 100 µM (inactive) | > 100 µM (inactive) | > 100 µM (inactive) | > 100 µM (inactive) | > 100 µM (inactive) | > 100 µM (inactive) |  | > 100 µM (inactive) | > 100 µM (inactive) | > 100 µM (inactive) | > 100 µM (inactive) | > 100 µM (inactive) | > 100 µM (inactive) | 18.7 µM (inactive) | > 100 µM (inactive) | 
3 | OCCCNc1ccnc2cc(Cl)ccc12 | > 100 µM (inactive) |  | > 100 µM (inactive) | > 100 µM (inactive) | > 100 µM (inactive) | > 100 µM (inactive) | > 100 µM (inactive) | > 100 µM (inactive) | > 100 µM (inactive) | > 100 µM (inactive) |  | > 100 µM (inactive) | > 100 µM (inactive) | > 100 µM (inactive) | 25.5 µM (inactive) | 61.9 µM (inactive) | > 100 µM (inactive) | > 100 µM (inactive) | > 100 µM (inactive) | 
4 | CCCCCC(C/C=N/N(C)C)C(O)(C(F)(F)F)C(F)(F)F (stereo not given) | 14.2 µM (inactive) |  | 35.9 µM (inactive) | 24.4 µM (inactive) | 16.3 µM (inactive) | 36.7 µM (inactive) | 38.7 µM (inactive) | 19.7 µM (inactive) | 19 µM (inactive) | 23.7 µM (inactive) | 25.9 µM (inactive) | 43.2 µM (inactive) | 29.4 µM (inactive) | 38 µM (inactive) | 36.2 µM (inactive) | 41.5 µM (inactive) | 33 µM (inactive) | 29 µM (inactive) | 25.4 µM (inactive) | 38.4 µM (inactive)
5 | CCN(CC)CCN(/C(=N/c1ccccc1)N1CCOCC1)c1ccccc1 | 18.2 µM (inactive) | > 100 µM (inactive) | > 100 µM (inactive) |  | 39.4 µM (inactive) | > 100 µM (inactive) | > 100 µM (inactive) | > 100 µM (inactive) | 48.4 µM (inactive) |  | > 100 µM (inactive) | 44.6 µM (inactive) | > 100 µM (inactive) | > 100 µM (inactive) | > 100 µM (inactive) | > 100 µM (inactive) |  | > 100 µM (inactive) | > 100 µM (inactive) | 
6 | COc1cc2c(c(OC)c1O)-c1ccc(SC)c(=O)cc1C(NC(C)=O)CC2 (stereo not given) | < 0.01 µM (active) |  | 0.0545 µM (active) | 0.557 µM (active) | < 0.01 µM (active) | < 0.0107 µM (active) | 0.0249 µM (active) | < 0.01 µM (active) | 0.0593 µM (active) | 0.195 µM (active) |  | < 0.01 µM (active) | < 0.0122 µM (active) | < 0.01 µM (active) | 5.96 µM (inactive) | 0.532 µM (active) | 0.0124 µM (active) | < 0.01 µM (active) | < 0.01 µM (active) | 
7 | Cc1c(C#N)c(N)n(C2OC(CO)C(O)C(O)C2O)c(=S)c1C#N (stereo not given) | > 100 µM (inactive) |  | > 100 µM (inactive) | > 100 µM (inactive) |  | > 100 µM (inactive) | > 100 µM (inactive) | > 100 µM (inactive) | > 100 µM (inactive) | > 100 µM (inactive) |  | > 100 µM (inactive) | > 100 µM (inactive) | > 100 µM (inactive) | > 100 µM (inactive) | > 100 µM (inactive) | > 100 µM (inactive) | > 100 µM (inactive) | > 100 µM (inactive) | > 100 µM (inactive)
8 | COc1cc(C2SCC(=O)N2c2ccc(-c3ccc(-n4c(-c5ccccc5)nc5ccccc5c4=O)cc3)cc2)cc(OC)c1OC (stereo not given) | 22.3 µM (inactive) | 17.3 µM (inactive) | 16.2 µM (inactive) | 16.6 µM (inactive) | 54.1 µM (inactive) | 63 µM (inactive) | 20.5 µM (inactive) | 13.4 µM (inactive) | 19 µM (inactive) | 44.3 µM (inactive) | 24.8 µM (inactive) | 2.21 µM (inactive) | 21.1 µM (inactive) | 17.3 µM (inactive) | 25.2 µM (inactive) | > 100 µM (inactive) | 50.7 µM (inactive) |  | 31.7 µM (inactive) | 
9 | COC(=O)/C=C/c1cc(O)c2c(c1)[C@H](C(=O)OC)[C@@H](c1ccc(O)c(O)c1)O2 |  |  | 0.152 µM (active) | 0.08 µM (active) | 11.5 µM (inactive) | 0.635 µM (active) | 0.0386 µM (active) | 0.0706 µM (active) | 0.221 µM (active) | 6.82 µM (inactive) |  | 0.0757 µM (active) | 0.0753 µM (active) | 0.0428 µM (active) | 0.189 µM (active) | 2.48 µM (inactive) | 9.89 µM (inactive) | 0.0195 µM (active) |  | 0.0122 µM (active)
10 | Cc1cc2c(s1)C(=O)c1sccc1C2=O | 3.34 µM (inactive) |  | 1.83 µM (inactive) | 1.05 µM (active) | 1.9 µM (inactive) | 0.762 µM (active) | 0.176 µM (active) | 0.552 µM (active) | 1.66 µM (inactive) | 1.78 µM (inactive) | 1.63 µM (inactive) | 0.152 µM (active) | 2.3 µM (inactive) | 0.275 µM (active) | 0.805 µM (active) | 1.76 µM (inactive) | 1.52 µM (inactive) | 0.397 µM (active) | 0.168 µM (active) | 0.171 µM (active)
11 | COC1(OC)CCCc2c1no[n+]2[O-] | > 100 µM (inactive) |  | > 100 µM (inactive) | > 100 µM (inactive) | > 100 µM (inactive) | > 100 µM (inactive) | > 100 µM (inactive) | > 100 µM (inactive) | > 100 µM (inactive) | > 100 µM (inactive) |  | > 100 µM (inactive) | > 100 µM (inactive) | > 100 µM (inactive) | > 100 µM (inactive) | > 100 µM (inactive) |  | 79.4 µM (inactive) | > 100 µM (inactive) | > 100 µM (inactive)
12 | CN1CCC23c4c5ccc(O)c4OC2C(=NN=C2CCC4(O)C6Cc7ccc(O)c8c7C4(CCN6C)C2O8)CCC3(O)C1C5 (stereo not given) | > 100 µM (inactive) |  | > 100 µM (inactive) | > 100 µM (inactive) | > 100 µM (inactive) | > 100 µM (inactive) | > 100 µM (inactive) | > 100 µM (inactive) | > 100 µM (inactive) | > 100 µM (inactive) |  | > 100 µM (inactive) | > 100 µM (inactive) | > 100 µM (inactive) | > 100 µM (inactive) | > 100 µM (inactive) | > 100 µM (inactive) | > 100 µM (inactive) | > 100 µM (inactive) | 
13 | N#Cc1nc(NC(=O)c2ccccc2)sc1N | 3 µM (inactive) |  | > 10 µM (inactive) | > 10 µM (inactive) | > 10 µM (inactive) | > 10 µM (inactive) | > 10 µM (inactive) | > 10 µM (inactive) | > 10 µM (inactive) | > 10 µM (inactive) | > 4.03 µM (inactive) | > 10 µM (inactive) | 3.27 µM (inactive) | > 10 µM (inactive) | > 10 µM (inactive) | > 10 µM (inactive) | > 10 µM (inactive) | > 10 µM (inactive) | > 10 µM (inactive) | > 10 µM (inactive)
14 | O=C1CC(c2cccc(Cl)c2)n2cccc21 (stereo not given) | 32.8 µM (inactive) |  | > 100 µM (inactive) | > 100 µM (inactive) | > 100 µM (inactive) | 74.6 µM (inactive) | > 100 µM (inactive) |  |  | > 100 µM (inactive) | 44.2 µM (inactive) | > 100 µM (inactive) | 70 µM (inactive) | > 100 µM (inactive) | 26.5 µM (inactive) | > 100 µM (inactive) | 65.3 µM (inactive) | 47.8 µM (inactive) |  | 
15 | CCc1ccc2c(c1)CC1(C2)Cc2cc3c(cc2C1)C(=O)CC3 (stereo not given) | 2.69 µM (inactive) |  | 25.6 µM (inactive) | 17.9 µM (inactive) | 4.93 µM (inactive) |  | 25.9 µM (inactive) | 20.3 µM (inactive) | 17.3 µM (inactive) | 10.9 µM (inactive) | 12.1 µM (inactive) | 15.4 µM (inactive) |  |  | 43.9 µM (inactive) | 19.7 µM (inactive) | 14.7 µM (inactive) |  | 14.9 µM (inactive) | 2.25 µM (inactive)
16 | Cc1[nH]n(-c2ncc(C#N)c(=O)[nH]2)c(=O)c1CCO |  |  | > 100 µM (inactive) | > 100 µM (inactive) | > 100 µM (inactive) | > 100 µM (inactive) | > 100 µM (inactive) | > 100 µM (inactive) | > 100 µM (inactive) | > 100 µM (inactive) | > 100 µM (inactive) | > 100 µM (inactive) | 75.5 µM (inactive) | > 100 µM (inactive) | > 100 µM (inactive) | > 100 µM (inactive) | > 100 µM (inactive) | 16.4 µM (inactive) | > 100 µM (inactive) | > 100 µM (inactive)
